Data published in patent US11925656B2, “Biological total joint replacement” (priority 2014, dated 2024).
“Also recorded” adds a separate entry of the source.

What was measured:
lubricin [1] = experiment: Lubricin in synovium by ELISA, rabbit arthritis model; assay type: in vivo; settings: prophylactic groups, oral days 1-42, vs control
Text: (§1) The study was approved by the Institutional Animal Care and Use Committee (IACUC) of Thomas D. Morris, Inc. 28 New Zeeland White rabbits were selected for the study. Six such were randomly assigned to one of four groups; prophylactic cyanidin-3-glycoside (C3G)(referred to figures as Cl 1-42), prophylactic protocatechuic acid (PCA)(referred to in figures as PCA 1-42), therapeutic C3G (referred to in figures as Cl 42-70), and therapeutic PCA (referred to in figures as PCA 42-70). There were four controls, two each to the prophylactic and therapeutic groups.
(§2) The prophylactic groups were given PROC3G™ by Chromadex™ at a dose of 30 mg/kg of body weight of either C3G or PCA by mouth, 7 times per week for 42 days. The therapeutic groups' treatment was initiated on day 42 with a daily dose of PROC3G™ by Chromadex™ 7 times per week for 4 weeks. The dose of 30 mg of cyanidin-3-glucoside per kg of body weight calculates to be 0.177 millimoles per kg body weight. The dose of PCA was the same in terms of millimoles per kg body weight.
(§3) The experimental rabbits underwent surgery with an intent to create a severe degenerative arthritis by cutting the medial collateral ligament, the anterior cruciate ligament and removing the medial meniscus. A partial thickness laceration was made longitudinally on the lateral femoral condyle for future assessment of potential for repair. The surgery was performed by two licensed veterinarians. One surgeon was very experienced. The other surgeon was a recent graduate.
(§4) At necropsy, the synovial fluid was harvested percutaneously and upon arthrotomy. The synovium was harvested from posterior compartment. The patella and adjacent synovium was procured as a separate specimen as was the medial and lateral condyle.
(§5) The synovial fluid and half of the synovium was frozen and sent to BioBoston Laboratory for chemical analysis. The other half of the synovium and bone was sent to McClinchery Histology in Stockbridge, Mich. for histological preparation and staining. […]
(§6) Synovial Tissue (Synovium)—Detected by ELISA

human osteoblasts = settings: in vitro, dose related; cited from earlier work
[2] = system: patellar articular cartilage; experiment: ICRS histological visual scale scoring of patellar cartilage, rabbit arthritis model; assay type: in vivo; settings: prophylactic, minimum of 30 mg/kilo gram body weight by oral route
Text: International Cartilage Repair Society (ICRS) criteria are described for example in Hoemann, et al., (cited on Applicant's IDS), herein incorporated by reference.
as §1, §2
(§7) The experimental rabbits underwent surgery with an intent to create a severe degenerative arthritis by cutting the medial collateral ligament, the anterior cruciate ligament and removing the medial meniscus. […]

IL-1 beta = IL-1 beta in synovium by ELISA, rabbit arthritis model; assay type: in vivo; settings: therapeutic groups, oral days 42-70, vs control
Text: as §1
(§8) The prophylactic groups were given PROC3G™ by Chromadex™ at a dose of 30 mg/kg of body weight of either C3G or PCA by mouth, 7 times per week for 42 days. The therapeutic groups' treatment was initiated on day 42 with a daily dose of PROC3G™ by Chromadex™ 7 times per week for 4 weeks. The dose of 30 mg of cyanidin-3-glucoside per kg of body weight calculates to be 0.177 millimoles per kg body weight. The dose of PCA was the same in terms of millimoles per kg body weight. […]
Interleukin-1 beta (IL-1p) also known as catabolic, is a cytokine protein. […] Increased production of IL-1B causes a number of different auto-inflammatory syndromes. • Synovial Fluid—Detected by ELISA • Levels of IL-1 beta were decreased in all groups. See FIG. 2A. • Synovial Tissue (Synovium)—Detected by ELISA

MMP-13 = MMP-13 in synovium by ELISA, rabbit surgically induced knee arthritis; assay type: in vivo; settings: vs untreated control, not statistically significant
Text: as §1, §2, §3, §4
(§9) The synovial fluid and half of the synovium was frozen and sent to BioBoston Laboratory for chemical analysis. The other half of the synovium and bone was sent to McClinchery Histology in Stockbridge, Mich. for histological preparation and staining. Patellar slides were sent to BioBoston Contract Laboratories for histochemical staining and ICRS grading. Sample slides were examined for Lubricin at Myron Spector laboratory.
as §6

MMP3 = MMP3 in synovial fluid by ELISA, rabbit arthritis model; assay type: in vivo; settings: therapeutic groups, oral days 42-70, vs control
Text: as §1, §8
MMP3 is known as matrix metallopeptidase 3, or stromelysin 1 or progelatinase. […] See FIG. 2C. • Synovial Tissue (Synovium)—Detected by ELISA • MMP-3 levels were reduced in all four groups. See FIG. 9B. • Synovial Tissue (Synovium)—Gene Expression Level Detected by Real-Time PCR • MMP-3 gene expression was decreased in all groups. […]

ADAMTS-5 gene expression = ADAMTS-5 gene expression in synovium by real-time PCR, rabbit arthritis model; assay type: in vivo; settings: therapeutic groups, oral days 42-70, vs control
Text: as §1, §2, §7
Synovial Tissue (Synovium)—Gene Expression Level Detected by Real-Time PCR

[3] = human; cited from earlier work
[4] = system: catabolic cytokine environment; experiment: Cytokine environment in surgically created arthritic knee; assay type: in vivo; settings: rabbits, either oral or intraarticular route
C-reactive protein (CRP) = C-reactive protein (CRP) in plasma after knee surgery; assay type: in vivo, rabbit
Description: C-reactive protein (CRP) is a protein found in the blood plasma, the levels of which rise in response to inflammation (i.e., C-reactive protein is an acute-phase protein). Its physiological role is to bind to phosphocholine expressed on the surface of dead or dying cells (and some types of bacteria) in order to activate the complement system via the C1Q complex. CRP rises within two hours of the onset of inflammation, up to a 50,000-fold, and peaks at 48 hours. […] CRP is thus a screen for inflammation.
Knee surgery was performed to create a severe irreparable degenerative knee joint, which in turn elevated the CRP in the plasma to average of […]. A historical normal amount of CRP is 3.15 micrograms/mL. See Sun H, et al., Am J Pathol. October 2005; 167(4): 1139-1148. Rabbit CRP levels are close to the mean values of healthy middle-aged humans (2.82 mg/L) reported in the literature. See Ockene I S, et al., Clin Chem. 2001; 47:444-450.
The controls in the study were animals that had surgery and received no treatment. The prophylaxis test groups had the surgery and received 6 weeks of oral C-3-G or PCA 7 times per week as described in example 1. The therapeutic treatment group had surgery, received no treatment for 41 days and then at day 42 received oral C-3-G or PCA 7 times per week as described in example 1.

MRSA and Pseudomonas = settings: tape-stripped rodent backs contaminated with MRSA and Pseudomonas; cited from earlier work
aggrecan = experiment: Aggrecan expression in patellar cartilage, rabbit arthritis model; assay type: in vivo; settings: prophylactic, minimum of 30 mg/kilo gram body weight by oral route, compared to the controls
Text: as §1, §2
as §3, with “The surgery was performed by two licensed veterinarians. One surgeon was very experienced. The other surgeon was a recent graduate.” left out

TNF-alpha = TNF-alpha in synovial fluid by ELISA, rabbit arthritis model; assay type: in vivo; settings: therapeutic groups, oral 4 weeks, vs control; not statistically significant
Text: as §1, §2, §7
(§10) Synovial Fluid—Detected by ELISA

ADAMTS-5 = ADAMTS-5 in synovial fluid by ELISA, rabbit arthritis model; assay type: in vivo; settings: therapeutic groups, oral days 42-70, vs control
Text: as §1, §2, §3, §4, §5, §10

human synovial explants = settings: PCA directly applied; cited from earlier work
[5] = system: human mesenchymal stem cells; settings: in vitro, dose related; cited from earlier work
IGF-1 = IGF-1 in plasma, rabbit arthritis model; assay type: in vivo; settings: for IGF-1 in the plasma: control group 25 PG/ML
Text: as §1, §2, §3
Blood testing was performed prior to necropsy on C3G, PCA, glucose, MMP-3 and IGF-1 to assess any systemic effects.

[6] = more powerful than vitamin E; cited from earlier work
MMP-3 = MMP-3 expression in cartilage, histochemical staining and scoring, rabbit arthritis model; assay type: in vivo
Text: as §1, §2, §3, §4, §9
MMP3 is known as matrix metallopeptidase 3, or stromelysin 1 or progelatinase. Proteins of the matrix metalloproteinase (MMP) family are involved in the breakdown of 20 extracellular matrix in normal physiological processes, such as embryonic development, reproduction, and tissue remodeling, as well as in disease processes, such as arthritis and metastasis. […] See FIG. 2C. • Synovial Tissue (Synovium)—Detected by ELISA • MMP-3 levels were reduced in all four groups. See FIG. 9B. • Synovial Tissue (Synovium)—Gene Expression Level Detected by Real-Time PCR • MMP-3 gene expression was decreased in all groups. See FIG. 13A. • Histochemical Scoring Analysis

collagen II = experiment: Collagen II expression in cartilage, immunohistochemical staining, rabbit arthritis model; assay type: in vivo; settings: prophylactic, minimum of 30 mg/kilo gram body weight by oral route, compared to the controls
Text: as §1, §2
as §3, with “The surgery was performed by two licensed veterinarians. One surgeon was very experienced. The other surgeon was a recent graduate.” left out

lubricin [7] = experiment: Lubricin expression in cartilage, immunohistochemical staining, rabbit arthritis model; assay type: in vivo; settings: prophylactic, minimum of 30 mg/kilo gram body weight by oral route, compared to the controls
Text: as §1, §2
as §3, with “The surgery was performed by two licensed veterinarians. One surgeon was very experienced. The other surgeon was a recent graduate.” left out

IGF-1 gene expression = IGF-1 gene expression in synovium by real-time PCR, rabbit arthritis model; assay type: in vivo; settings: rabbits, either oral or intraarticular route
Text: as §1, §8
See FIG. 5B. • Synovial Tissue (Synovium)-Detected by ELISA • IGF-1 was increased in all groups. See FIG. 8B. • Synovial Tissue (Synovium)-Gene Expression Level Detected by Real-Time PCR • IGF-1 was increased in all groups.

lymphocytes = experiment: Number of lymphocytes in synovial fluid, rabbit arthritis model; assay type: in vivo
Text: as §1, §2, §3, §4
In addition to testing for the increase or decrease of various factors and cytokines, tests were run to count the number of white blood cells, including polymorphonuclear leukocytes (PMN), macrophages (Mac) and lymphocytes (Lym). […]

[8] = prophylactic groups, oral days 1-42
[9] = therapeutic groups, oral days 42-70
[10] = prophylactic groups, oral days 1-42, vs control
[11] = therapeutic groups, oral days 42-70, vs control

For `O=C(O)c1ccc(O)c(O)c1` [PCA, Protocatechuic acid (3,4-dihydroxybenzoic acid)], the lubricin in synovium (lubricin [1]) is given as “increased”, the “bone making markers in human osteoblasts” value (human osteoblasts) is given as “produce bone making markers” and the articular cartilage cells ([2]; compared to the controls) is given as “unchanged in nature and spacing”. The subchondral bone structure ([2]; without sclerosis or osteophyte formation) was “remained normal in structure”, the “levels of IL-1 beta in synovium” value (IL-1 beta) was “decreased” and the “MMP-13 levels in synovium” value (MMP-13; prophylactic groups, oral 7 times per week days 1-42 (C3G 30 mg/kg, PCA 26.4 mg/kg)) was “very slightly decreased”. For the same compound, the “MMP-13 levels in synovium” value (MMP-13; therapeutic groups, oral 7 times per week days 42-70 (C3G 30 mg/kg, PCA 26.4 mg/kg)) was “increased slightly”, the “MMP3 in synovial fluid” value (MMP3) was “decreased” and the “ADAMTS-5 gene expression in synovium” value (ADAMTS-5 gene expression) was “decreased”. For the same compound, the toxicity [3] was “non-toxic; also recorded: no known human toxic effects”, the “catabolic cytokine environment in a surgically created arthritic knee” value [4] was “reversing” and the “CRP, an indicator of inflammation” value (C-reactive protein (CRP); given by oral route immediately after injury) was “kept to normal levels”. The “plasma CRP level” value (C-reactive protein (CRP); prophylaxis test group, 6 weeks oral treatment from surgery, untreated control at 42 days 8.8 mg/mL) was 3.6 micrograms/mL, the “plasma CRP level” value (C-reactive protein (CRP); therapeutic group, no treatment for 6 weeks after surgery, then 4 weeks oral treatment) was 43 mg/mL and the “collagen layer in the dermis” value (MRSA and Pseudomonas) was “production of collagen layer in the dermis”. For the same compound, the “re-epithelialization of the skin wound” value (MRSA and Pseudomonas) was “re-epithelialization of the wound”, the “time to disinfect the wound” value (MRSA and Pseudomonas) was 2 days and the “aggrecan in articular cartilage ECM” value (aggrecan) was “increased”. For the same compound, the “TNF-alpha levels in synovial fluid” value (TNF-alpha) was “slight increase”, the “ADAMTS-5 in synovial fluid” value (ADAMTS-5) was “decreased” and the “IGF-1 in human synovial explants” value (human synovial explants) was “increased”. For the same compound, the “bone making markers in human mesenchymal stem cells” value [5] was “produce bone making markers”, the “IGF-1 in the plasma, change vs control” value (IGF-1; prophylactic group, oral days 1-42, only group with an increase) was “increased” and the “IGF-1 in the plasma” value (IGF-1; [8]) was 43.0 pg/mL. The “IGF-1 in the plasma” value (IGF-1; [9]) was 29.0 pg/mL, the “antioxidant power relative to vitamin E” value [6] was 10 × and the “histochemical staining for the presence of MMP-3 in cartilage” value (MMP-3; [8]) was “no staining”. For the same compound, the “MMP-3 expression in cartilage” value (MMP-3; [10]) was “reduced”, the “histochemical staining for the presence of MMP-3 in cartilage” value (MMP-3; [9]) was “no staining” and the “MMP-3 expression in cartilage” value (MMP-3; [11]) was “reduced”. For the same compound, the “type II collagen in articular cartilage ECM” value (collagen II) was “increased”, the “lubricin on the articular cartilage surface” value (lubricin [7]) was “increased” and the “IGF-1 genetic expression in the synovium” value (IGF-1 gene expression) was “increase”. For the same compound, the “number of lymphocytes in synovial fluid” value (lymphocytes; [10]) was “decreased” and the “number of lymphocytes in synovial fluid” value (lymphocytes; [11]) was “decreased”.
